The source of these data is US8541410B2, “Sulfur substituted sulfonylaminocarboxylic acid N-arylamides, their preparation, their use and pharmaceutical preparations comprising them” (Sanofi-aventis Deutschland GmbH, priority 1998, dated 2013).

Assay [1] addresses T1, soluble guanylate cyclase (sGC) (Bos taurus, UniProt P16068).
T1 construct: The sGC which was employed had been isolated from bovine lung; from tissue; host or cells: bovine lung
T1 sequence (P16068 1-619): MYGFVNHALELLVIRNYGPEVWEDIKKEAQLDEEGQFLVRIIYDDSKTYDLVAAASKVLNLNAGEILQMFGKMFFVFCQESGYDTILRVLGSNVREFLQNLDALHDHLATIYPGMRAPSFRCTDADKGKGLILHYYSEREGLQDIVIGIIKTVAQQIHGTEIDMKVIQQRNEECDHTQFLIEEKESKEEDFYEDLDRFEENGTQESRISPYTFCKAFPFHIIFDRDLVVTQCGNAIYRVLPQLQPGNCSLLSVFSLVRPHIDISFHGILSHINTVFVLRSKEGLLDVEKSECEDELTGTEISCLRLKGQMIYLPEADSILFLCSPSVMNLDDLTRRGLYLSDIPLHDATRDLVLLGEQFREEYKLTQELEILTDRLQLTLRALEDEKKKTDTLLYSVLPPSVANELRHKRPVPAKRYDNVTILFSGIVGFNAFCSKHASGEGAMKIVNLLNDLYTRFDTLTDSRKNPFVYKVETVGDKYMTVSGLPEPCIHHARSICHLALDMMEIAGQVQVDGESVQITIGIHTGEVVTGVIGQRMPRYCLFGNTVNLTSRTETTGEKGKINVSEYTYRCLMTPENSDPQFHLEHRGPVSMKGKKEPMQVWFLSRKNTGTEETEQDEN
T1 sequence (P19687 1-691 partner): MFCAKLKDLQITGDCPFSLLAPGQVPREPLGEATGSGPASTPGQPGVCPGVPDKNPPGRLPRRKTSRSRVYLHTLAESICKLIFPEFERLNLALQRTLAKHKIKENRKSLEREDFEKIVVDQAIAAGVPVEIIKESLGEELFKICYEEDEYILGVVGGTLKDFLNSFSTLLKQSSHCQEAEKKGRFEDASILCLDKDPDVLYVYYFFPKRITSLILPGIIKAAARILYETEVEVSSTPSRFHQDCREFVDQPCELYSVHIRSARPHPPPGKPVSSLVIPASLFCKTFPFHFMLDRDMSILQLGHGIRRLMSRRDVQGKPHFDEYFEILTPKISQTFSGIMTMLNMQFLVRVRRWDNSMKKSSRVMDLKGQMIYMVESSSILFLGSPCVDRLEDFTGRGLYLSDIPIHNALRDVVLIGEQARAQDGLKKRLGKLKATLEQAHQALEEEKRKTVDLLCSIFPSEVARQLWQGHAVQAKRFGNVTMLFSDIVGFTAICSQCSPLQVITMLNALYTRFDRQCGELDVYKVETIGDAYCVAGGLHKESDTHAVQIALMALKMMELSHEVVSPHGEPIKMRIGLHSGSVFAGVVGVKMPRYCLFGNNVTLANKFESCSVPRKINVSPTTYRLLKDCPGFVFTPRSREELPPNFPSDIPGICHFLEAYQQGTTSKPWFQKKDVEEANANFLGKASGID
Put plainly: Activation of the soluble guanylate cyclase (cGMP enzyme immunoassay). It is filed as biochemical, bovine. Particulars: concentration c 50 μM; n-fold stimulation of basal enzyme activity.

The next assay has as its system rat aorta rings. Put plainly: Relaxation of rat aorta (phenylephrine-precontracted rings). In kind it is cell-based, rat (Wistar-Kyoto). The conditions noted are these: 50% relaxation of phenylephrine (1 μM) contraction. The source says: For this test, normotensive male Wistar-Kyoto rats were sacrificed by a blow to the neck. The abdominal cavity and the thorax were opened by a medium stemotomy. The descending aorta was subsequently removed, freed of connective tissue and divided into 8 rings of a length of approximately 4 mm. The tip of a pair of tweezers was introduced into the lumen of 4 of the 8 rings. The endothelium was removed by carefully rolling the rings over the tip of the pair of tweezers. All 8 aorta rings (4 with endothelium and 4 without endothelium) were subsequently suspended in an organ bath (Schuler-Organbad; Hugo Sachs Elektronik) at a constant temperature of 37° C. for the isometric determination of the contractile tone. For 30 minutes, the rings were calibrated at a resting tension of 0.1 g in carbonated (95% O2; 5% CO2) Krebs-Henseleit solution (composition: Na^+ 144.0 mM; K^+ 5.9 mM; Cl^− 126.9 mM; Ca^2+ 1.6 mM; […] 1.2 mM; H2PO4^− 1.2 mM; SO4^2− 1.2 mM; HCO3^− 25.0 mM; D-glucose 11.1 mM) of pH 7.4. Additionally, 1 μmol/l of indomethacin were added to the Krebs-Henseleit solution to inhibit prostaglandin biosynthesis. The rings were subsequently precontracted by addition of phenylephrine (concentration in the solution: 1 μM) and the endothelium-dependent relaxation or the functional loss of the endothelium was tested by addition of acetylcholine (concentration in the solution: 1 μM). After a 30-minute washing period, the rings were then again precontracted by addition of phenylephrine (1 μM), and the relaxing action of the test substances of the formula I was determined by administration of cumulative doses of the latter. The data were evaluated by standard methods. Given is the concentration IC50 by which contraction is inhibited by 50% (50% relaxation).

The subject of a further assay is pig. The experiment in a line: Hemodynamic effect in the pig. In kind it is in vivo, pig (German landrace). The conditions noted are these: 10 mg/kg i.d., anesthetized pigs. The procedure: Three pigs (German landrace) were anesthetized (Ketamine 20 mg/kg i.m., Methomidate 8 mg/kg i.p., Xylazine 2.5 mg/kg i.m. and Pentobarbital 25 mg/kg i.v. as a bolus plus 0.16 mg/kg per minute). The trachea was intubated and the animals were given artificial respiration with air. Oxygen was added to keep the blood gas parameters in the normal range. To record the blood pressure (BP; BP(s)=systolic blood pressure, BP(d)=diastolic blood pressure) by means of a Statham 23 Db pressure transducer a catheter was inserted into the right A. Femoralis. The left ventricular pressure (LVP), the left ventricular end-diastolic pressure (LVEDP), the contractility (dP/dt) and the heart rate (HR) were determined with a Millar PC 350 catheter “tip manometer” which was inserted into the […] ventricle. After a stabilization period of the hemodynamic parameters of 30 minutes the test substance was administered in the indicated dose into the exposed duodenum by means of a catheter. The determined data were evaluated according to standard methods. Given are the means and the standard deviations (M±SEM) of the starting values and of the maximal changes of the individual parameters (=maximal effects).

In assay [1], `COc1cc(NS(=O)(=O)c2ccc(Cl)cc2)c(C(=O)Nc2ccc(S(=O)(=O)N3CCSCC3)cc2)cc1OC` [Example 59, 2-(4-Chloro-phenylsulfonylamino)-4,5-dimethoxy-N-(4-(thiomorpholine-4-sulfonyl)-phenyl)-benzamide] came in with a n-fold stimulation of 34.8. Besides, the 50% inhibitory concentration (IC50) in the assay with rat aorta rings (ring with endothelium) amounted to 520 nM; in the assay with rat aorta rings (ring without endothelium), 270 nM.

The molecule `O=C(Nc1ccc(S(=O)(=O)N2CCOCC2)cc1)c1cc(Cl)ccc1NS(=O)(=O)c1ccc(Cl)s1` [Example 129, 5-Chloro-2-(5-chloro-thiophene-2-sulfonylamino)-N-(4-(morpholine-4-sulfonyl)-phenyl)-benzamide] gave a n-fold stimulation in assay [1] of 8.6. Moreover, the IC50 is 460 nM in the assay with rat aorta rings (ring with endothelium) and 310 nM in the assay with rat aorta rings (ring without endothelium).

For the molecule `COc1cc(NS(=O)(=O)c2ccc(Cl)cc2)c(C(=O)Nc2ccc(S(=O)(=O)N3C[C@@H](C)O[C@@H](C)C3)cc2)cc1OC` [Example 88, 2-(4-Chloro-phenylsulfonylamino)-N-(4-(cis-2,6-dimethyl-morpholine-4-sulfonyl)-phenyl)-4,5-dimethoxy-benzamide], in the assay on pig, the “BP(d) duration of action” value is greater than 0.125 days, the “BP(s) duration of action” value is greater than 10800 s, the “HR duration of action” value was greater than 180 min and the “LVEDP duration of action” value was greater than 180 min. Further, the “dP/dtmax duration of action” value in the assay on pig is greater than 180 min. Besides, the dP/dtmax maximal alteration with pig (contractility, M±SEM) was −633 ± 33 mm Hg/sec. Further, the “BP(d) maximal alteration” value with pig (diastolic blood pressure, M±SEM) was −20 ± 8 mm Hg. In the assay with pig (heart rate, M±SEM), this molecule had an HR maximal alteration of −8 ± 2 beats/min. This molecule also yielded an LVEDP maximal alteration in the assay on pig (left ventricular end-diastolic pressure, M±SEM) of −1.3 ± 0.3 mm Hg. Further, the “BP(s) maximal alteration” value with pig (systolic blood pressure, M±SEM) is on record as −23 ± 6 mm Hg. The molecule further registered a n-fold stimulation in assay [1] of 24.4. The IC50 in the assay on rat aorta rings (ring with endothelium) is 670 nM. For the same molecule, the midpoint of inhibition in the assay with rat aorta rings (ring without endothelium), the IC50, lay at 290 nM.
